Laboratory results published in patent publication EP1743641A1, “Use of substituted pyrazoline compounds for the treatment of food disorders, including obesity or metabolic syndrome in patients with developed diabetes” (LABORATORIOS DEL DR. ESTEVE, S.A., priority 2005, dated 2007).

Key:
CB2-Receptor = molecular target: T1, CB2-Receptor (Homo sapiens, UniProt P34972); experiment: In-vitro determination of affinity to CB2 receptor (radioligand [3H]-CP55940); type: binding
T1 construct: purchased Receptor Biology, Inc
T1 sequence (P34972 whole entry): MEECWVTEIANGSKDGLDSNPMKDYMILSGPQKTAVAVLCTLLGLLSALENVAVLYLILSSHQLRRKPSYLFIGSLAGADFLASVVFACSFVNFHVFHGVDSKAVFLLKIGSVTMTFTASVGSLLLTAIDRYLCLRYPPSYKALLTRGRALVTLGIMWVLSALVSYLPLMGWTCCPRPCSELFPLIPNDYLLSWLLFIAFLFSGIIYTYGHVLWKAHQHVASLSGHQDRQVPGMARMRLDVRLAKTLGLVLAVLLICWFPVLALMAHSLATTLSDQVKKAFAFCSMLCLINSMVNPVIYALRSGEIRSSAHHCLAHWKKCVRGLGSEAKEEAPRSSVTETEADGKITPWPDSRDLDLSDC
Description: (§1) The in-vitro determination of the affinity of the substituted pyrazoline compounds to CB1/CB2-Rezeptors is carried out as described in the publication of Ruth A. Ross, Heather C. Brockie et al., "Agonist-inverse agonist characterization at CB1 and CB2 cannabinoid receptors of L-759633, L759656 and AM630", British Journal of Pharmacology, 126, 665-672, (1999), whereby the transfected human CB1 and CB2 receptors of Receptor Biology, Inc. are used. The radioligand used for both receptors is [^3H]-CP55940. The respective parts of the description is hereby incorporated by reference and forms part of the present disclosure. The affinity of the inventive substituted pyrazoline compounds to CB1/CB2 receptors was determined as described above.

cannabinoid receptors [1] = experiment: Mouse tetrad model, antagonistic effect against Win 55212-2; type: in vivo, Male NMRI mice; set-up: unit not given here; settings: 5 mg/kg i.v. prior to Win 55212-2 in a dose of 1,25mg/kg i.v., mice
From the text: (§2) Substances with affinity for cannabinoid receptors are known to produce a wide range of pharmacological effects. It is also known that intravenous administration of a substance with affinity for cannabinoid receptors in mice produces analgesia , hypothermia, sedation and catalepsy. Individually, none of these effects can be considered as proof that a tested substance has affinity for cannabinoid-receptors, since all of these effects are common for various classes of centrally active agents. However, substances, which show all of these effects, i.e. substances that are active in this so-called tetrad model are considered to have affinity for the cannabinoid receptors. It has further been shown that cannabinoid receptor antagonists are higly effective in blocking the effects of a cannabinoid agonist in the mouse tetrad model.
(§3) The tetrad model is described, for example, in the publication of A. C. Howlett et al, International Union of Pharmacology XXVII. Classification of Cannabinoid e cept σs, Pharmacol Rev 54, 161-202 , 2002 and David R. Compton et al., "In-vivo Characterization of a Specific Cannabinoid Receptor Antagonist (SR141716A) :Inhibition of Tetrahydrocannbinol- induced Responses and Apparent Agonist Activity", J. Pharmacol. Exp. Ther. 277, 2, 586-594, 1996. The corresponding parts of the description are hereby incorporated by reference.
(§4) Male NMRI mice with a weight of 20-30 g (Harlan, Barcelona, Spain) are used in all of the following experiments.
(§5) Before testing in the behavioral procedures given below, mice are acclimatized to the experimental setting. Pre-Treatment control values are determined for analgesia hot plate latency (in seconds), rectal temperature, sedation and catalepsy.
(§6) In order to determine the agonistic activty of the substance to be tested, the mice are injected intravenously with the substance to be tested or the vehicle alone. 15 minutes after injection, latency in hot plate analgesia is measured. Rectal temperature, sedation and catalepsy are measured 20 minutes after injection.
In order to determine the antagonistic activity the identical procedure is used as for the determination of the agonistic effects, but with the difference that the substance to be evaluated for its antagonistic activity is injectected 5 minutes before the intravenous injection of 1.25 mg/kg Win-55,212 a known cannabinoid-receptor agonist.
(§7) The hot plate analgesia is determined according to the method described in Woolfe D. et al. "The evaluation of analgesic action of pethidine hydrochloride (Demerol)", J. Pharmacol. Exp. Ther. 80, 300-307,1944. The respective description is hereby incorporated by reference and forms part of the present disclosure.
(§8) The mice are placed on a hot plate (Harvard Analgesimeter) at 55 ± 0.5 °C until they show a painful sensation by licking their paws or jumping and the time for these sensations to occur is recorded. This reading is considered the basal value (B). The maximum time limit the mice are allowed to remain on the hot plate in absence of any painful response is 40 seconds in order to prevent skin damage. This period is called the cut-off time (PC).
(§9) Fifteen minuts after the administration of the substance to be tested, the mice are again placed on the hot plate and the afore described procedure is repeated. This period is called the post-treatment reading (PT).
(§10) %MPEof Analgesia = (PT−B)/(PC−B) × 100 [formula]
(§11) Sedation and ataxia is determined according to the method described in Desmet L. K. C. et al. "Anticonvulsive properties of Cinarizine and Flunarizine in Rats and Mice", Arzneim. -Forsch. (Frug Res) 25, 9, 1975. The respective description is hereby incorporated by reference and forms part of the present disclosure.
(§12) The chosen scoring system is
%of sedation = arithmetic mean/3 × 100 [formula] […]

CB1-Receptor = molecular target: T2, CB1-Receptor (Homo sapiens, UniProt P21554); experiment: In-vitro determination of affinity to CB1 receptor (radioligand [3H]-CP55940); type: binding
T2 construct: purchased Receptor Biology, Inc
T2 sequence (P21554 whole entry): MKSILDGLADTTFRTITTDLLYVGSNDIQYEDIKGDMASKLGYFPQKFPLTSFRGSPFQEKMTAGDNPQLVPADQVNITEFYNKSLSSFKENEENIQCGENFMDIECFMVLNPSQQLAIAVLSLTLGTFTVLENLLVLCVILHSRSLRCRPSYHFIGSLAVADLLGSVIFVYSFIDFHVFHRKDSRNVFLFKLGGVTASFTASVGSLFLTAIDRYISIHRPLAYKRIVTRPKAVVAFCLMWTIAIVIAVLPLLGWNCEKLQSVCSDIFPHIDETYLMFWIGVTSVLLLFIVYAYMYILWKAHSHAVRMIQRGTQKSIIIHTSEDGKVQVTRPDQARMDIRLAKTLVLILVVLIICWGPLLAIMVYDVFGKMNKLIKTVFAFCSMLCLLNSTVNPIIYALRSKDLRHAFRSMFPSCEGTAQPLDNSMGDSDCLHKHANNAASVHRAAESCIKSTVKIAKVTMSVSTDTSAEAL
Description: as §1, with “disclosure.” for “disclosure. The affinity of the inventive substituted pyrazoline compounds to CB1/CB2 receptors was determined as described above.”
The affinity of the inventive substituted pyrazoline compounds to CB1/CB2 receptors was determined as described above.

cannabinoid receptors [2] = experiment: Mouse tetrad model, agonistic effect; type: in vivo, Male NMRI mice; set-up: key to Agonistic effect D: Sedation: % of sedation = arithmetic mean score/3 × 100; settings: 5 mg/kg i.v., mice
From the text: as §2, §3, §4, §5, §6, §7, §8, §9, §10, §11, §12
%of sedation = arithmetic mean/3 × 100 [formula]
Hypothermia is determined according to the method described in David R. Compton et al. "In-vivo Characterization of a Specific Cannabinoid Receptor Antagonist (SR141716A) Inhibition of Tetrahydrocannbinol- induced Responses and Apparent Agonist Activity", J. Pharmacol Exp Ther. 277 , 2, 586-594, 1996. The respective description is hereby incorporated by reference and forms part of the present disclosure. […]

| Structure (SMILES) | Ki (CB2-Receptor) | Antagonistic Effect A: Hot-Plate test (cannabinoid receptors [1]) | Antagonistic Effect B: Hypothermia (cannabinoid receptors [1]) | Antagonistic Effect C: Catalepsy (cannabinoid receptors [1]) | Antagonistic Effect D: Sedation (cannabinoid receptors [1]) | Ki (CB1-Receptor) | Agonistic effect A: Hot-Plate test (cannabinoid receptors [2]) | Agonistic effect B: Hypothermia (cannabinoid receptors [2]) | Agonistic effect C: Catalepsy (cannabinoid receptors [2]) | Agonistic effect D: Sedation (cannabinoid receptors [2]) |
| --- | --- | --- | --- | --- | --- | --- | --- | --- | --- | --- |
| O=C(NN1CCCCC1)C1=NN(c2ccc(Cl)cc2Cl)C(c2ccc(Cl)cc2)C1 (stereo not shown) [Example 1, N-piperidinyl-5-(4-chlorophenyl)-1-(2,4-dichlorophenyl)-4,5-dihydro-1H-pyrazole-3-carboxamide] | > 1000 nM | 74 | 100 | 100 | 100 | < 25 nM | 0 | 0 | 0 | 0 |
| O=C(C1=NN(c2ccc(Cl)cc2Cl)C(c2ccc(Cl)cc2)C1)N1CCCCC1 (stereo not shown) [Example 5, [5-(4-Chloro-phenyl)-1-(2,4-dichloro-phenyl)-4,5-dihydro-1H-pyrazol-3-yl]-piperidin-1-yl-methanone] | ~1000 nM | 50 | 40 | 20 | 20 | – | 0 | 50 | 0 | 0 |
